Data published in USRE50957E1, “Molecular rheostat for cofactor balance” (The Regents of the University of California, priority 2016, dated 2026).

Experiments:
[1] = target: G. stearothermophilus glyceraldehyde-3-phosphate dehydrogenase (GsGap, gapDH WT), wild type, SEQ ID NO:6 (Geobacillus stearothermophilus, UniProt P00362); assay: Kinetics and cofactor specificity of wild type GsGap (gapDH WT); conditions: cofactor, 50 mM tris pH 7.5, 340 nm
[2] = target: G. stearothermophilus glyceraldehyde-3-phosphate dehydrogenase (GsGap) mutant mGapDH (mGap, gapDH M6), D34A/L35R/T36K relative to SEQ ID NO:6 (Geobacillus stearothermophilus, UniProt P00362, D34A/L35R/T36K); assay: Kinetics and cofactor specificity of triple mutant mGap (mGapDH); type: biochemical, G. stearothermophilus ATCC12980; conditions: 50 mM tris pH 7.5, 340 nm
Experimental: Enzyme activity and optimization. All of the enzymes used in this work were assayed. The enzymes were assayed in 50 mM tris buffer pH 7.5, 5 mM MgCl, and 5 mM KCl which mirrors the final reaction conditions. The activity of NAD(P)H producing or consuming reactions were monitored at 340 nm. The activity of ATP consuming enzymes were monitored using a coupled assay with Zwf and NADP^+ at 340 nm.
To implement the “molecular rheostat” module, GapDH enzyme was engineered that efficiently uses NADP^+. […] Although the cofactor specificity of GsGap has adjusted before by sequence-based design, the mutant only slightly preferred NADP^+ over NAD^+. To more strongly flip the cofactor specificity of GsGap the crystal structure was examined and basic residues introduced into the loop region proximate to the 2′OH of NAD′ that may help stabilize binding of a 2′ phosphate in NADP^+. A series of mutations were made altering residues D34, L35, and T36 of SEQ ID NO:6. The kinetics and specificity of the best enzyme, a D34A/L35R/T36K triple mutant (herein referred to as mGap), were obtained.

Chain of G. stearothermophilus glyceraldehyde-3-phosphate dehydrogenase (GsGap) mutant mGapDH (mGap, gapDH M6), D34A/L35R/T36K relative to SEQ ID NO:6 (P00362 whole entry D34A/L35R/T36K): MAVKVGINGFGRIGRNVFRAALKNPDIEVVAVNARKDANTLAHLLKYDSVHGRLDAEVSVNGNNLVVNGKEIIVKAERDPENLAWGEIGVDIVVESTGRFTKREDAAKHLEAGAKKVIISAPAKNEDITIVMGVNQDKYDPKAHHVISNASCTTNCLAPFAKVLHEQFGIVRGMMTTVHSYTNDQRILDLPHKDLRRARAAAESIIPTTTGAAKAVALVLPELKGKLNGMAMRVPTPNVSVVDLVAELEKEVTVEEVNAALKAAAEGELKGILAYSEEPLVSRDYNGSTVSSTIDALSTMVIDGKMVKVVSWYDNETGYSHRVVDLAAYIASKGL
Chain of G. stearothermophilus glyceraldehyde-3-phosphate dehydrogenase (GsGap, gapDH WT), wild type, SEQ ID NO:6 (P00362 whole entry): as the sequence (P00362 whole entry D34A/L35R/T36K) above, with A34D, R35L, K36T counted along it

NC(=O)c1ccc[n+]([C@@H]2O[C@H](COP(=O)([O-])OP(=O)(O)OC[C@H]3O[C@@H](n4cnc5c(N)ncnc54)[C@H](O)[C@@H]3O)[C@@H](O)[C@H]2O)c1 [NAD+, nicotinamide adenine dinucleotide]
Km [1]: 1500 ± 300 µM
kcat ([2]; cofactor varied): 0.2 ± 0.04 µM/min/mg
Km ([2]; cofactor): 600 ± 400 µM
